# Test results from PubChem BioAssay AID330 (DTP/NCI, 2004).
# “And” between values parts separate entries of the source, which are not always exact repeats. Equal entries are not always repeated. Toxic doses and inconclusive results are not listed.
# System: P388 leukemia ip, CD2F1 mice, survival T/C
# Assay: NCI In Vivo Anticancer Drug Screen. Data for tumor model P388 Leukemia (intraperitoneal) in CD2F1 (CDF1) mice
# Details: endpoint: median survival time, higher = longer survival
# How it was run: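 Mice carrying the transplanted tumor received test compound or vehicle. Survival was recorded in each group, and the value is the treated-group measurement divided by that of the vehicle-treated control group.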
# [1] = dose: 25.0 mg/kg/injection, schedule: Q01DX009 (ip), vehicle: saline with Tween-80
# [2] = dose: 50.0 mg/kg/injection, schedule: Q01DX009 (ip), vehicle: saline with Tween-80
# [3] = dose: 100.0 mg/kg/injection, schedule: Q01DX009 (ip), vehicle: saline with Tween-80
# [4] = dose: 50.0 mg/kg/injection, schedule: Q01DX009 (ip), vehicle: saline
# [5] = dose: 100.0 mg/kg/injection, schedule: Q01DX009 (ip), vehicle: saline
# [6] = dose: 200.0 mg/kg/injection, schedule: Q01DX009 (ip), vehicle: saline
# [7] = dose: 12.5 mg/kg/injection, schedule: Q01DX009 (ip), vehicle: saline with Tween-80
compound,measurement,setting,value
CCN(c1ccccc1)c1cc2c(cc1[N+](=O)[O-])no[n+]2[O-],T/C,"dose: 1.87 mg/kg/injection, schedule: Q01DX009 (ip), vehicle: saline",101 % of control
same,T/C,"dose: 3.75 mg/kg/injection, schedule: Q01DX009 (ip), vehicle: saline",91 % of control
same,T/C,"dose: 7.5 mg/kg/injection, schedule: Q01DX009 (ip), vehicle: saline",90 % of control and 97 % of control
same,T/C,"dose: 15.0 mg/kg/injection, schedule: Q01DX009 (ip), vehicle: saline",103 % of control and 91 % of control
same,T/C,"dose: 30.0 mg/kg/injection, schedule: Q01DX009 (ip), vehicle: saline",93 % of control
CCN(CC)CCOc1cccc(C)c1C,T/C,[1],100 % of control
same,T/C,[2],95 % of control
same,T/C,[3],104 % of control
COc1ccc(-n2c(C)nc3ccccc3c2=O)cc1CN(CCCl)CCCl,T/C,"dose: 25.0 mg/kg/injection, schedule: Q04DX002 (ip), vehicle: saline with Tween-80",97 % of control
same,T/C,"dose: 50.0 mg/kg/injection, schedule: Q04DX002 (ip), vehicle: saline with Tween-80",109 % of control
same,T/C,"dose: 100.0 mg/kg/injection, schedule: Q04DX002 (ip), vehicle: saline with Tween-80",100 % of control
Cn1ccc(=Nc2ccc(NC(=O)c3ccc(N=c4ccn(C)c5ccc([N+](=O)[O-])cc45)cc3)cc2)cc1,T/C,"dose: 3.13 mg/kg/injection, schedule: Q01DX009 (ip), vehicle: other",160 % of control
same,T/C,"dose: 6.25 mg/kg/injection, schedule: Q01DX009 (ip), vehicle: other",188 % of control
same,T/C,"dose: 12.5 mg/kg/injection, schedule: Q01DX009 (ip), vehicle: other",182 % of control
same,T/C,"dose: 25.0 mg/kg/injection, schedule: Q01DX009 (ip), vehicle: other",179 % of control and 220 % of control
same,T/C,"dose: 50.0 mg/kg/injection, schedule: Q01DX009 (ip), vehicle: other",168 % of control
same,T/C,"dose: 100.0 mg/kg/injection, schedule: Q01DX009 (ip), vehicle: other",97 % of control
NCc1cc(O)c(O)c(O)c1,T/C,"dose: 25.0 mg/kg/injection, schedule: Q01DX009 (ip), vehicle: saline",100 % of control
same,T/C,[4],103 % of control and 120 % of control
same,T/C,[5],110 % of control and 118 % of control and 114 % of control
same,T/C,[6],116 % of control and 120 % of control and 122 % of control
same,T/C,"dose: 400.0 mg/kg/injection, schedule: Q01DX009 (ip), vehicle: saline",121 % of control and 123 % of control and 124 % of control
same,T/C,"dose: 600.0 mg/kg/injection, schedule: Q01DX009 (ip), vehicle: saline",155 % of control and 157 % of control and 150 % of control
CCN(CC)CCNc1ccc(C)c2sc3ccc(N)cc3c(=O)c12,T/C,[7],120 % of control
same,T/C,[1],103 % of control
same,T/C,[2],124 % of control
same,T/C,[3],118 % of control
NC(CS)C(=O)O (stereo unspecified),T/C,"dose: 50.0 mg/kg/injection, schedule: Q01DX005 (ip), vehicle: saline with Tween-80",101 % of control
same,T/C,[4],115 % of control
same,T/C,"dose: 100.0 mg/kg/injection, schedule: Q01DX005 (ip), vehicle: saline with Tween-80",107 % of control
same,T/C,[5],110 % of control
same,T/C,"dose: 200.0 mg/kg/injection, schedule: Q01DX005 (ip), vehicle: saline with Tween-80",110 % of control
same,T/C,[6],109 % of control
CC1(C)N=C(N)N=C(N)N1c1cccc(CSc2ccccc2)c1,T/C,"dose: 7.5 mg/kg/injection, schedule: Q01DX005 (ip), vehicle: Klucel (hydroxypropylcellulose) (HPC)",98 % of control
same,T/C,"dose: 15.0 mg/kg/injection, schedule: Q01DX005 (ip), vehicle: Klucel (hydroxypropylcellulose) (HPC)",103 % of control
same,T/C,"dose: 30.0 mg/kg/injection, schedule: Q01DX005 (ip), vehicle: Klucel (hydroxypropylcellulose) (HPC)",103 % of control
C/C(=N\NC(=S)N(C)C1CCCCC1)c1ccc2ccccc2n1,T/C,"dose: 6.25 mg/kg/injection, schedule: Q01DX005 (ip), vehicle: saline with Tween-80",103 % of control and 114 % of control
same,T/C,"dose: 12.5 mg/kg/injection, schedule: Q01DX005 (ip), vehicle: saline with Tween-80",111 % of control and 115 % of control
same,T/C,"dose: 25.0 mg/kg/injection, schedule: Q01DX005 (ip), vehicle: saline with Tween-80",150 % of control
Nc1nc2[nH]c(=O)cnc2c(=O)[nH]1,T/C,[7],107 % of control
same,T/C,[1],107 % of control
same,T/C,[2],108 % of control
same,T/C,"dose: 50.0 mg/kg/injection, schedule: Q01DX009 (ip), vehicle: suspension in saline",106 % of control
same,T/C,"dose: 100.0 mg/kg/injection, schedule: Q01DX009 (ip), vehicle: suspension in saline",91 % of control
same,T/C,"dose: 200.0 mg/kg/injection, schedule: Q01DX009 (ip), vehicle: suspension in saline",107 % of control
same,T/C,"dose: 300.0 mg/kg/injection, schedule: Q01DX009 (ip), vehicle: saline",91 % of control
